Data: ChEMBL document CHEMBL1201862, “PubChem BioAssay data set” (2004)
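Interpolation was linear, between the two tested concentrations surrounding the appropriate level; five concentrations were tested over 48 hours in 96-well plates. GI50: concentration for 50% inhibition of growth.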 Calls of active or inactive are those of the source. Cut-off read from the data, not from the text of the source: active = GI50 up to about 1.1 µM and inactive = higher.

How the values were obtained:
Test in all cases: inhibition of tumour cell growth, NCI panel, 48 h
[1] = test system: 786-0
[2] = test system: A498
[3] = test system: A549
[4] = test system: ACHN
[5] = test system: BT-549
[6] = test system: CAKI-1
[7] = test system: CCRF-CEM
[8] = test system: COLO 205
[9] = test system: DU-145
[10] = test system: EKVX
[11] = test system: HCC 2998
[12] = test system: HCT-116
[13] = test system: HCT-15
[14] = test system: HOP-62
[15] = test system: HOP-92
[16] = test system: HT-29
[17] = test system: Hs-578T
[18] = test system: IGROV-1
[19] = test system: K562
[20] = test system: KM12
[21] = test system: LOX IMVI
[22] = test system: M14
[23] = test system: MCF7
[24] = test system: MDA-MB-231
[25] = test system: MDA-MB-435
[26] = test system: MDA-N
[27] = test system: MOLT-4
[28] = test system: Malme-3M
[29] = test system: NCI-H226
[30] = test system: NCI-H23
[31] = test system: NCI-H460
[32] = test system: NCI-H522
[33] = test system: NCI/ADR-RES
[34] = test system: OVCAR-4
[35] = test system: OVCAR-5
[36] = test system: PC-3
[37] = test system: RPMI-8226
[38] = test system: RXF 393
[39] = test system: SF-268
[40] = test system: SF-295
[41] = test system: SK-MEL-28
[42] = test system: SK-MEL-2
[43] = test system: SK-MEL-5
[44] = test system: SK-OV-3
[45] = test system: SN12C
[46] = test system: SNB-19
[47] = test system: SR
[48] = test system: SW-620
[49] = test system: T47D
[50] = test system: TK-10
[51] = test system: U-251
[52] = test system: UACC-257
[53] = test system: UACC-62
[54] = test system: UO-31
[55] = test system: OVCAR-3
[56] = test system: OVCAR-8
[57] = test system: SF-539
[58] = test system: SNB-75

`Nc1nonc1-c1noc(-c2nonc2N)[n+]1[O-]` was tested, and the GI50 [1] was 37.1 µM (inactive), the GI50 [2] was > 100 µM (inactive) and the GI50 [3] was 30.3 µM (inactive). For the same molecule, the GI50 [4] was 33.8 µM (inactive), the GI50 [5] was 64.1 µM (inactive) and the GI50 [6] was 18.4 µM (inactive). The GI50 [7] was 0.366 µM (active), the GI50 [8] was > 10 µM (inactive) and the GI50 [9] was > 100 µM (inactive). For the same molecule, the GI50 [10] was 30.8 µM (inactive), the GI50 [11] was > 100 µM (inactive) and the GI50 [12] was > 100 µM (inactive). The GI50 [13] was 19.7 µM, the GI50 [14] was > 100 µM (inactive) and the GI50 [15] was 69.8 µM (inactive). For the same molecule, the GI50 [16] was 16 µM (inactive), the GI50 [17] was > 100 µM (inactive) and the GI50 [18] was > 100 µM (inactive). For the same molecule, the GI50 [19] was 41 µM (inactive), the GI50 [20] was 58.9 µM (inactive) and the GI50 [21] was 63.2 µM (inactive). For the same molecule, the GI50 [22] was 29.6 µM (inactive), the GI50 [23] was 33.3 µM (inactive) and the GI50 [24] was > 100 µM (inactive). For the same molecule, the GI50 [25] was 57 µM (inactive), the GI50 [26] was 69.7 µM (inactive) and the GI50 [27] was 54.6 µM (inactive). The GI50 [28] was 20.4 µM (inactive), the GI50 [29] was 49.5 µM (inactive) and the GI50 [30] was 77.4 µM (inactive). For the same molecule, the GI50 [31] was 62.7 µM (inactive), the GI50 [32] was 13.1 µM (inactive) and the GI50 [33] was 69.2 µM (inactive). The GI50 [34] was > 100 µM (inactive), the GI50 [35] was 33.7 µM (inactive) and the GI50 [36] was 69.7 µM (inactive). For the same molecule, the GI50 [37] was 54.6 µM (inactive), the GI50 [38] was 24.9 µM (inactive) and the GI50 [39] was > 100 µM (inactive). The GI50 [40] was > 100 µM (inactive), the GI50 [41] was > 100 µM (inactive) and the GI50 [42] was > 100 µM (inactive). For the same molecule, the GI50 [43] was 32.1 µM (inactive), the GI50 [44] was > 100 µM (inactive) and the GI50 [45] was > 100 µM (inactive). For the same molecule, the GI50 [46] was > 100 µM (inactive), the GI50 [47] was 93.8 µM (inactive) and the GI50 [48] was 27 µM (inactive). The GI50 [49] was > 10 µM (inactive), the GI50 [50] was 43 µM (inactive) and the GI50 [51] was > 100 µM (inactive). The GI50 [52] was > 100 µM (inactive), the GI50 [53] was 66.7 µM (inactive) and the GI50 [54] was 42.9 µM (inactive).
In the case of `c1cc(-c2sc(-c3ccncc3)c(-c3ccncc3)c2-c2ccncc2)ccn1`, the GI50 [1] was 14.1 µM (inactive), the GI50 [2] was 12.5 µM (inactive) and the GI50 [3] was 17.2 µM (inactive). The GI50 [4] was 14.8 µM (inactive), the GI50 [5] was 18.7 µM (inactive) and the GI50 [6] was 36.9 µM (inactive). The GI50 [8] was 12.8 µM (inactive), the GI50 [9] was 23 µM (inactive) and the GI50 [10] was 13.1 µM (inactive). The GI50 [11] was 3.27 µM (inactive), the GI50 [12] was 12.9 µM (inactive) and the GI50 [13] was 18.5 µM. For the same molecule, the GI50 [14] was 18.5 µM (inactive), the GI50 [15] was 11.4 µM (inactive) and the GI50 [16] was 13.6 µM (inactive). The GI50 [17] was 22.3 µM (inactive), the GI50 [18] was 18.2 µM (inactive) and the GI50 [19] was 28.2 µM (inactive). The GI50 [20] was 26 µM (inactive), the GI50 [21] was 13.6 µM (inactive) and the GI50 [22] was 16.5 µM (inactive). For the same molecule, the GI50 [23] was 19.4 µM (inactive), the GI50 [24] was 15.1 µM (inactive) and the GI50 [25] was 14.6 µM (inactive). The GI50 [26] was 13.8 µM (inactive), the GI50 [27] was 12 µM (inactive) and the GI50 [28] was 17.7 µM (inactive). The GI50 [29] was 14.6 µM (inactive), the GI50 [30] was 16.1 µM (inactive) and the GI50 [31] was 10.8 µM (inactive). For the same molecule, the GI50 [32] was 15.5 µM (inactive), the GI50 [33] was 22.9 µM (inactive) and the GI50 [55] was 16.9 µM (inactive). For the same molecule, the GI50 [34] was 33 µM (inactive), the GI50 [35] was 19.7 µM (inactive) and the GI50 [56] was 24.4 µM (inactive). The GI50 [36] was 19.8 µM (inactive), the GI50 [37] was 33.9 µM (inactive) and the GI50 [38] was 16.3 µM (inactive). For the same molecule, the GI50 [39] was 15.2 µM (inactive), the GI50 [40] was 17.3 µM (inactive) and the GI50 [57] was 12.5 µM (inactive). The GI50 [41] was 19.6 µM (inactive), the GI50 [42] was 20.1 µM (inactive) and the GI50 [43] was 14.7 µM (inactive). The GI50 [44] was 20.9 µM (inactive), the GI50 [45] was 17.6 µM (inactive) and the GI50 [46] was 18.4 µM (inactive). For the same molecule, the GI50 [58] was 14 µM (inactive), the GI50 [47] was 14.2 µM (inactive) and the GI50 [48] was 17 µM (inactive). For the same molecule, the GI50 [49] was 32.4 µM (inactive), the GI50 [50] was 15.2 µM (inactive) and the GI50 [51] was 14.1 µM (inactive). For the same molecule, the GI50 [52] was 17 µM (inactive), the GI50 [53] was 14.1 µM (inactive) and the GI50 [54] was 12.6 µM (inactive).
